# Ends that are not written are not given here.
# Legend:
# [1] = centrally administered; Peptides 9, 1285-8 (1989); cited from earlier work
# [2] = system: Herpes zoster virus (HZV); conditions: Eye 8: 70-74 (1994); cited from earlier work
# corneal epithelial cells = conditions: Lens Eye Toxic. Res. 6: 59-85 (1989); cited from earlier work
# [3] = system: C. albicans (clinical isolate); test: C. albicans viability, colony forming units (incl. comparison with fluconazole and ACTH); format: cell-based, Candida albicans; design: potency in reducing C. albicans viability / inhibition of C. albicans CFU: dose or concentration left out as unconfirmed; conditions: for potency in reducing C. albicans viability: comparison among peptides, fluconazole and ACTH; for effect on C. albicans colony forming units: 10^−15 to 10^−4M, 2 hours at 37° C., FIG. 7
# Description: C. albicans (clinical isolate) were obtained from the collection of the Department of Microbiology, Ospedale Maggiore di Milano. C. albicans were maintained on Sabouraud'[…] periodically transferred to Sabouraud's agar plates and incubated for 48 hours at 28° C. To prepare stationary growth phase yeast, a colony was taken from the agar plate and transferred into 30 ml Sabouraud-dextrose broth and incubated for 72 hours at 32° C. Cells were centrifuged at 100×g for 10 minutes and the pellet was washed twice with distilled water. Cells were counted and suspended in Hank's balanced salt solution (“HBSS”) to the desired concentration. Viability, determined by the exclusion of 0.01% methylene blue, remained >98%. […] ID NO. […] Cells were then washed in cold distilled water and diluted with HBSS to a concentration of 100 organisms/ml. One ml aliquots were dispensed on blood agar plates and incubated for 48 hours at 37° C. Organism viability was estimated from the number of colonies formed. […] (SEQ. […] Fluconazole is a well established antifungal agent. The potency of the peptides in reducing C. albicans viability is studied in comparison with fluconazole and ACTH using similar procedures as in Example VII. […] There were at least six replicates for each concentration of peptide. […] Their inhibitory activity was similar to that of fluconazole. The “core” α-MSH sequence, α-MSH [4-10] (SEQ. […] (SEQ. ID NO. 3) and α-MSH [11-13] […] (SEQ. ID NO. 4) (p<0.05).
# [4] = system: HIV-1 infected promonocytic U1 cell line; test: HIV-p24 release by TNF-α stimulated U1 cells (ELISA); format: cell-based; conditions: 10^−13 to 10^−4 M, FIG. 2
# Excerpt: Before use, cells were washed three times with HBSS (Gibco) to remove extracellular virus.
# [5] = system: HIV-1 infected promonocytic U1 cells; test: HIV-p24 and reverse transcriptase release by U1 cells stimulated by IL-6, IL-10, PMA or crowding; format: cell-based; conditions: 10^−5 M; U1 cells induced by IL-6, IL-10, PMA, and in crowding conditions; FIG. 3
# Description: In all experiments, each condition was tested in triplicate.
# [6] = system: HIV-1 RNA in PMA-stimulated U1 cells; test: HIV transcription, Northern blot analysis of HIV-RNA in PMA-stimulated U1 cells; format: cell-based; conditions: 10^−5M; PMA (1 ng/mL) stimulated U1 cells, 24 h; FIG. 4
# Excerpt: Total RNA was extracted by the guanidine thiocyanate phenol method using an RNA isolation kit (Tripure, Boehringer Mannheim, Indianapolis, Ind.), following the manufacturer's instructions. Ten μg of total RNA were separated by 0.8% agarose/formaldehyde gel electrophoresis and transferred onto nylon membrane. The filters were baked and hybridized for 18 hr with α^32 P-labeled HIV-full length probe (kind gift of L. Turchetto and E. Vicenzi, S. Raffaele Hospital, Milan, Italy). The radiolabeling reaction was performed using a DNA labeling kit (Ready-to-go, Pharmacia Biotech, San Francisco, Calif.). Filters were washed and exposed to X-ray film for 5 days. The labeled probe was removed by washing at 80° C. in 0.1×SSC containing 0.1% sodium dodecyl sulphate and then rehybridized with α^32 P-labeled glyceraldehyde-3-phosphate dehydrogenase (GAPDH) cDNA probe. Densitometric analysis was performed using ImageMaster™ VDS 3.0 software (Pharmacia Biotech) and results were expressed as density units.
# [7] = system: Staphylococcus aureus (ATCC29213); test: S. aureus viability, colony forming units; format: cell-based; design: dose or concentration left out as unconfirmed; conditions: 2 hours at 37° C.; FIG. 5
# Description: Staphylococcus aureus (ATCC29213) was obtained from the collection of the Department of Microbiology, Ospedale Maggiore di Milano. […] (SEQ. ID NO 4), α-MSH [11-13] […] S. aureus were then washed in cold distilled water and diluted with HBSS to a concentration of 100 organisms/ml. One ml aliquots were dispensed on blood agar plates and incubated for 24 hours at 37° C. Organism viability was estimated from the number of colony forming units. (SEQ. ID NO. 4) and α-MSH [11-13]
# [8] = system: S. aureus with recombinant human urokinase; test: Urokinase-induced growth-enhancement of S. aureus, colony counts; format: cell-based, Staphylococcus aureus; conditions: 10^−6 M; urokinase 500 U, four hours at 37° C.; FIG. 6; listed as α-MSH [11-13]
# Description: In this experiment, the influence of α-MSH on urokinase-induced growth-enhancement is determined. Hart, D. A.; Loule, T.; Krulikl, W.; Reno, C., Staphylococcus Aureus Strains Differ in Their in Vitro Responsiveness to Human Urokinase: Evidence that Methicillin-Resistant Strains are Predominantly Nonresponsive to the Growth-Enhancing Effects of Urokinase, Can. J. Microbiol. 42, 1024-31 […]. […] (SEQ. ID NO. 4) or α-MSH [11-13] (SEQ. ID NO. […]) at 10^−6 M. Appropriate dilutions of S. aureus were dispensed on agar plates and colonies counted after 24 hours incubation at 37° C.
# [9] = system: Herpes simplex virus blepharitis; test: Treatment of viral ophthalmic infection, HSV blepharitis, patient; format: in vivo; conditions: ophthalmic aqueous solution 10^−5 M, 3-5 drops four times daily for 7 days
# Description: A patient is diagnosed as having Herpes simplex virus blepharitis. […] The patient is treated with 3-5 drops of the ophthalmic aqueous solution onto the surface of eyes four times daily for 7 days.
# [10] = system: infectious keratitis of bacterial etiology; test: Treatment of bacterial ophthalmic infection, bacterial keratitis, patient; format: in vivo; conditions: ophthalmic aqueous solution 10^−5 M, 3-5 drops four times daily for 7 days
# Excerpt: A patient presents complaining of eye pain when blinking and blurred vision. Upon examination the cornea appears subtly less transparent than normal cornea and may have ulcers on its surface. The diagnosis is infectious keratitis of bacterial etiology, which is confirmed by laboratory findings.
# Keratomycosis = test: Treatment of fungal ophthalmic infection, Keratomycosis, patient; format: in vivo; conditions: ophthalmic aqueous solution 10^−5 M, 3-5 drops four times daily for 7 days
# Excerpt: Upon examination, a patient is diagnosed as having Keratomycosis.
# [11] = Peptides 12, 767-71 (1991); cited from earlier work
# [12] = Peptides 6, 273-5 (1985); cited from earlier work
compound,measurement,setting,value
"8-13 sequence: α-MSH 8-13 sequence (RWGKPV; ends and bridges not checked; UniProt P01189 145-150, looked up, fragment)",antipyretic potency relative to α-MSH (11-13) sequence,[1],greater than that of the 11-13 sequence
"9-13 sequence: α-MSH 9-13 sequence (WGKPV; ends and bridges not checked; UniProt P01189 146-150, looked up, fragment)",antipyretic potency relative to α-MSH (11-13) sequence,[1],almost devoid of activity
"10-13 sequence: α-MSH (11-13) with glycine added to form the 10-13 sequence (GKPV; ends and bridges not checked; UniProt P01189 147-150, looked up, fragment)",antipyretic potency relative to α-MSH (11-13) sequence,[1],slightly decreased potency
Nc1nc2c(ncn2COCCO)c(=O)[nH]1 [Acyclovir],preventative effect on ocular complications of HZV,[2],little or no preventative effect
O=c1[nH]c(=O)n([C@H]2C[C@H](O)[C@@H](CO)O2)cc1I [Idoxurine],toxicity to corneal epithelial cells,corneal epithelial cells,toxic to corneal epithelial cells
"ACTH (1-39): Adrenocorticotropic Hormone (1-39) (SYSMEHFRWGKPVGKKRRPVKVYPNGAEDESAEAFPLEF; Corticotropin; UniProt P01189 138-176, looked up) [reference compound]",potency in reducing C. albicans viability,[3]; FIG. 8,did not reduce
"ACTH (18-39): ACTH fragment (18-39), also called CLIP [reference compound]",potency in reducing C. albicans viability,[3]; FIG. 8,did not reduce
"HFRWGKPV (Ac-HFRWGKPV-NH2) [α-MSH [6-13], α-MSH from residue 6 through residue 13]",potency in reducing C. albicans viability,[3]; FIG. 8,most effective
KPV,effect on p24 release,[4],significantly inhibited
same,effect on RT (reverse transcriptase) release,[5],significantly inhibited
same,effect on p24 release,[5],significantly inhibited
same,reduction of spliced HIV-1 RNA,[6],approximately 50%
same,reduction of unspliced HIV-1 RNA,[6],approximately 50%
same,effect on S. aureus colony formation (CFU),[7],inhibited
same,effect on urokinase-enhanced S. aureus colony formation,[8],significantly inhibited the enhancing effect of urokinase
same,effect on C. albicans colony forming units,[3],greatly reduced
same,potency in reducing C. albicans viability,[3]; FIG. 8,most effective
same,HSV blepharitis symptom after treatment,[9],substantially reduced
same,outcome of bacterial keratitis after treatment,[10],either shows marked improvement or fully recovers
same,outcome of Keratomycosis after treatment,Keratomycosis,either shows marked improvement or fully recovers
MEHFRWG (Ac-MEHFRWG-NH2) [α-MSH [4-10]],inhibition of C. albicans CFU,[3]; FIG. 8,approximately 50%
Val-Pro-Lys-AcCys-s-s-CysAc-Lys-Pro-Val [KPV dimer],effect on S. aureus colony formation (CFU),[7],inhibited
same,effect on C. albicans colony forming units,[3],inhibited
[D-K^11] α-MSH 11-13,anti-inflammatory activity relative to L-form tripeptide α-MSH 11-13,[11],same general potency as the L-form
[Nle^4 DPhe^7]-α-MSH,potency in reducing fever relative to parent peptide α-MSH,[12],approximately ten times more potent than the parent peptide
